pIC50: −log10 of the molar value.

We go through 30 compounds from ChEMBL document CHEMBL4422631, “Investigation of stereoisomeric bisarylethenesulfonic acid esters for discovering potent and selective PTP1B inhibitors” (Eur J Med Chem, 2019).

Series [1] has as its target T1, Tyrosine-protein phosphatase non-receptor type 1 (Homo sapiens, UniProt P18031).
T1 sequence (P18031 whole entry): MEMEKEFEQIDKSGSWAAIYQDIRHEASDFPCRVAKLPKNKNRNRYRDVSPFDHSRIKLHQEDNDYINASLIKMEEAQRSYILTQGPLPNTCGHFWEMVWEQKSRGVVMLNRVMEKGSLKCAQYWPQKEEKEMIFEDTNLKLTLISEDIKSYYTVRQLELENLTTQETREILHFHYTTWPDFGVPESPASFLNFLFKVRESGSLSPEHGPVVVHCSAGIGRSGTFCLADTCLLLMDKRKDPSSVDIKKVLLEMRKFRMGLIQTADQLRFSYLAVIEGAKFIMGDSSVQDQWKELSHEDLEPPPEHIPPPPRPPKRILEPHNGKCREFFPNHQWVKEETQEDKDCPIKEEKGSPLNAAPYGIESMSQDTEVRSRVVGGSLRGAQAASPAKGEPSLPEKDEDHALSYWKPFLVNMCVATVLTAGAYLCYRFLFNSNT
The series is described as follows: Inhibition of PTP1B (unknown origin) using pNPP as substrate after 30 mins.

Series [2] concerns the target T2, Tyrosine-protein phosphatase non-receptor type 2 (Homo sapiens, UniProt P17706).
T2 sequence (P17706 whole entry): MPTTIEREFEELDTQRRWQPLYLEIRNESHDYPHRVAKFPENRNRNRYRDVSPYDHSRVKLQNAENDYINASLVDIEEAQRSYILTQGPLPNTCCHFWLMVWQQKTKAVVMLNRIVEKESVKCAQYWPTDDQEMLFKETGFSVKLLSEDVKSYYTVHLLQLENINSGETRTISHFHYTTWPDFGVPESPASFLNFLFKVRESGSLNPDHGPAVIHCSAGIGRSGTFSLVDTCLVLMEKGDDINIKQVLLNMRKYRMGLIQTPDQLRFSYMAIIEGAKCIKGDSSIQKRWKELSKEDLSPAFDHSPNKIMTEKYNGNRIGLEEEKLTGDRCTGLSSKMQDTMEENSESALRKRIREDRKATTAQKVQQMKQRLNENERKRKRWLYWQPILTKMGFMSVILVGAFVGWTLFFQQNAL
The series is described as follows: Inhibition of TCPTP (unknown origin) using pNPP as substrate after 30 mins.

Series [3] has as its target T3, Tyrosine-protein phosphatase non-receptor type 11 (Homo sapiens, UniProt Q06124).
T3 sequence (Q06124 whole entry): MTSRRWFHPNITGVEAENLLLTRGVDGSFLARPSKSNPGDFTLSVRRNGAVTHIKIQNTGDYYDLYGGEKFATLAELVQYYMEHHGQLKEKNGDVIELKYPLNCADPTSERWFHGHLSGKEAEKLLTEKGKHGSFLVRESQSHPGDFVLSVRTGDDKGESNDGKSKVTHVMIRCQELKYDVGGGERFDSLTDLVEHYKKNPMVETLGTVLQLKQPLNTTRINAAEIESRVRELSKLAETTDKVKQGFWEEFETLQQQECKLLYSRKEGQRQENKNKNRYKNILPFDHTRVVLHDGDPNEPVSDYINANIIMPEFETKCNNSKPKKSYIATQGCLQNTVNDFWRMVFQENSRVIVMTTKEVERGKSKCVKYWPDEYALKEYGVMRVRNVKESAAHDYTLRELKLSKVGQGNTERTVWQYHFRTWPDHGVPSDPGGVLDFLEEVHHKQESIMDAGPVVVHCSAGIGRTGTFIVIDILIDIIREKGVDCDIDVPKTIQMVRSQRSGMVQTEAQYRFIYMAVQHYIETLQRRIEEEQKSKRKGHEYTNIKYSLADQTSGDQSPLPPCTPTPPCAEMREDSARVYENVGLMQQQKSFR
The series is described as follows: Inhibition of SHP2 (unknown origin) using pNPP as substrate after 30 mins.

A short description of series [4]: Apparent permeability of compound at 10 uM at pH 7.4 after 12 hrs by PAMPA. In kind it is ADME.
For series [5], the target named is T4, Tyrosine-protein phosphatase non-receptor type 1 (Homo sapiens) (UniProt P18031).
T4 sequence (whole entry): T1 sequence (P18031 whole entry)
The series is described as follows: Inhibition of PTP1B in human HepG2 cells assessed as increase in insulin stimulated glucose uptake at 5 uM preincubated for 24 hrs followed by insulin addition and measured after 10 mins by 2-NBDG dye-based FACS analysis relative to control. Set-up: scale not given: the % may be the effect or the level left. Format: cell-based.

Series [6] has as its target T4, Tyrosine-protein phosphatase non-receptor type 1 (Homo sapiens). The series is described as follows: Inhibition of PTP1B in human HepG2 cells assessed as increase in insulin stimulated glucose uptake at 10 uM preincubated for 24 hrs followed by insulin addition and measured after 10 mins by 2-NBDG dye-based FACS analysis relative to control. Format: cell-based. The arrangement: scale not given: the % may be the effect or the level left.

Series [7] has the same target. The series is described as follows: Inhibition of PTP1B in human HepG2 cells assessed as increase in insulin stimulated glucose uptake at 20 uM preincubated for 24 hrs followed by insulin addition and measured after 10 mins by 2-NBDG dye-based FACS analysis relative to control. Set-up: scale not given: the % may be the effect or the level left. Format: cell-based.

Turning to `CCOS(=O)(=O)/C=C/c1ccc(O[C@@H]2CN(C(=O)C(=O)Nc3ccc(Oc4ccccc4)cc3)C[C@@H]2Oc2ccc(CCS(=O)(=O)OCC)cc2)cc1`, in series [1], the pIC50 was 5.55. With `CCOS(=O)(=O)/C=C/c1ccc(O[C@H]2CNC[C@H]2Oc2ccc(/C=C/S(=O)(=O)OCC)cc2)cc1`, the pIC50 in series [1] was 4.56; in series [2], 4.32; in series [3] it was 4.26. Besides, the Papp at 12 h, 10 µM in series [4] was 8.7 nm/s.

`CCOS(=O)(=O)/C=C/c1ccc(O[C@@H]2CN(C(=O)C(=O)Nc3ccc(Oc4ccc(F)cc4)cc3)C[C@H]2Oc2ccc(CCS(=O)(=O)OCC)cc2)cc1`: the pIC50 in series [1] was 6.34. The same measure, in the same setting: under `CCOS(=O)(=O)/C=C/c1ccc(O[C@@H]2CN(C(=O)C(=O)Nc3ccc(Oc4ccc(F)cc4)cc3)C[C@@H]2Oc2ccc(CCS(=O)(=O)OCC)cc2)cc1` stands 5.91; under `CCCCCCc1ccc(NC(=O)C(=O)N2C[C@@H](Oc3ccc(/C=C/S(=O)(=O)OCC)cc3)[C@H](Oc3ccc(CCS(=O)(=O)OCC)cc3)C2)cc1`, 6.21. Turning to `CCOS(=O)(=O)/C=C/c1ccc(O[C@@H]2CN(C(=O)C(=O)Nc3ccccc3)C[C@H]2Oc2ccc(/C=C/S(=O)(=O)OCC)cc2)cc1`, the pIC50 is 5.60 in series [1], 5.11 in series [2] and 5.25 in series [3]. In addition, in series [4], the Papp at 12 h, 10 µM was 12.7 nm/s.

Turning to `CCOS(=O)(=O)/C=C/c1ccc(O[C@@H]2CN(C(=O)c3ccc(Oc4ccc(C(C)C)cc4)cc3)C[C@H]2Oc2ccc(/C=C/S(=O)(=O)OCC)cc2)cc1`, the pIC50 in series [1] was 5.47.

Compound `CCOS(=O)(=O)/C=C/c1ccc(O[C@@H]2CN(C(=O)C(=O)Nc3ccc(Oc4ccc5ccccc5c4)cc3)C[C@H]2Oc2ccc(CCS(=O)(=O)OCC)cc2)cc1` gave a pIC50 in series [1] of 6.44. On the same count and under the same terms, the same measure for `CCOS(=O)(=O)/C=C/c1ccc(O[C@@H]2CN(C(=O)C(=O)Nc3ccc(Oc4ccc(Br)cc4)cc3)C[C@@H]2Oc2ccc(CCS(=O)(=O)OCC)cc2)cc1`: 5.82. The same measure, in the same setting: under `CCOS(=O)(=O)/C=C/c1ccc(O[C@@H]2CN(C(=O)Nc3ccc(Oc4ccccc4)cc3)C[C@H]2Oc2ccc(/C=C/S(=O)(=O)OCC)cc2)cc1` stands 5.71; under `CCOS(=O)(=O)/C=C/c1ccc(O[C@@H]2CN(Cc3ccccc3)C[C@H]2Oc2ccc(/C=C/S(=O)(=O)OCC)cc2)cc1`, 5.03. `CCOS(=O)(=O)/C=C/c1ccc(O[C@@H]2CN(C(=O)C(=O)Nc3ccc(Oc4ccccc4)cc3)C[C@H]2Oc2ccc(/C=C/S(=O)(=O)OCC)cc2)cc1` showed a pIC50 in series [1] of 5.97.

As to `CCOS(=O)(=O)/C=C/c1ccc(O[C@@H]2CN(C(=O)C(=O)Nc3ccc(Oc4ccc(Cl)cc4)cc3)C[C@@H]2Oc2ccc(CCS(=O)(=O)OCC)cc2)cc1`, in series [1], the pIC50 is 5.84. On the same count and under the same terms, under `CCOS(=O)(=O)/C=C/c1ccc(O[C@@H]2CN(C(=O)Nc3ccc(Oc4ccc(C(C)C)cc4)cc3)C[C@H]2Oc2ccc(/C=C/S(=O)(=O)OCC)cc2)cc1` stands 5.86. On the same count and under the same terms, the same measure for `CCCCCCc1ccc(NC(=O)C(=O)N2C[C@H](Oc3ccc(CCS(=O)(=O)OCC)cc3)[C@H](Oc3ccc(/C=C/S(=O)(=O)OCC)cc3)C2)cc1`: 5.81. Consider `CCOS(=O)(=O)/C=C/c1ccc(O[C@@H]2CN(C(=O)C(=O)Nc3ccc(Oc4ccc(C(C)(C)C)cc4)cc3)C[C@H]2Oc2ccc(CCS(=O)(=O)OCC)cc2)cc1`, for which the pIC50 in series [1] is 6.37.

The compound `CCOS(=O)(=O)/C=C/c1ccc(O[C@@H]2CN(C(=O)Nc3ccccc3)C[C@H]2Oc2ccc(/C=C/S(=O)(=O)OCC)cc2)cc1` gave a pIC50 in series [1] of 5.45. On the same count and under the same terms, under `CCOS(=O)(=O)/C=C/c1ccc(O[C@@H]2CN(C(=O)C(=O)Nc3ccc(Oc4ccc(Br)cc4)cc3)C[C@H]2Oc2ccc(CCS(=O)(=O)OCC)cc2)cc1` stands 6.36; under `CCOS(=O)(=O)/C=C/c1ccc(O[C@@H]2CN(Cc3ccc(Oc4ccccc4)cc3)C[C@H]2Oc2ccc(/C=C/S(=O)(=O)OCC)cc2)cc1`, 5.13. `CCOS(=O)(=O)/C=C/c1ccc(O[C@@H]2CN(C(=O)c3ccc(Oc4ccccc4)cc3)C[C@H]2Oc2ccc(/C=C/S(=O)(=O)OCC)cc2)cc1` showed a pIC50 in series [1] of 5.53. As to `CCc1ccc(CCOc2ccc(CC3SC(=O)NC3=O)cc2)nc1` (stereo unspecified), the Activity in series [5] amounted to 51.1%; in series [6], 70.2%; in series [7], 78.9%. Take `CCOS(=O)(=O)/C=C/c1ccc(O[C@@H]2CN(C(=O)C(=O)Nc3ccc(Oc4ccc(C(C)C)cc4)cc3)C[C@H]2Oc2ccc(/C=C/S(=O)(=O)OCC)cc2)cc1`: in series [1], the pIC50 was 6.38. Turning to `CC(C)NCC(O)COc1cccc2ccccc12` (stereo unspecified) [PROPRANOLOL], the Papp at 12 h, 10 µM in series [4] was 87.1 nm/s. Regarding `CCOS(=O)(=O)/C=C/c1ccc(O[C@@H]2CN(C(=O)C(=O)Nc3ccc(Oc4ccc(Cl)cc4)cc3)C[C@H]2Oc2ccc(CCS(=O)(=O)OCC)cc2)cc1`, in series [1], the pIC50 was 6.42. Same read-out and setting: under `CCOS(=O)(=O)/C=C/c1ccc(O[C@@H]2CN(C(=O)c3ccccc3)C[C@H]2Oc2ccc(/C=C/S(=O)(=O)OCC)cc2)cc1` stands 5.11. For `CCOS(=O)(=O)/C=C/c1ccc(O[C@@H]2CNC[C@H]2Oc2ccc(/C=C/S(=O)(=O)OCC)cc2)cc1`, the figures for the pIC50 in series [1], in series [2] and in series [3] were 4.77, 4.53 and 4.63, respectively. Moreover, the Papp at 12 h, 10 µM in series [4] is 9.3 nm/s. `CCOS(=O)(=O)/C=C/c1ccc(O[C@@H]2CN(C(=O)C(=O)Nc3ccc(Oc4ccc5ccccc5c4)cc3)C[C@@H]2Oc2ccc(CCS(=O)(=O)OCC)cc2)cc1` had a pIC50 in series [1] of 5.90. In series [1], `CCOS(=O)(=O)/C=C/c1ccc(O[C@@H]2CN(C(=O)C(=O)Nc3ccc(Oc4ccc(C(C)(C)C)cc4)cc3)C[C@@H]2Oc2ccc(CCS(=O)(=O)OCC)cc2)cc1` showed a pIC50 of 5.93.

On to `CCOS(=O)(=O)/C=C/c1ccc(O[C@@H]2CN(C(=O)C(=O)Nc3ccc(Oc4ccc(C(C)C)cc4)cc3)C[C@@H]2Oc2ccc(CCS(=O)(=O)OCC)cc2)cc1`, for which, in series [1], the pIC50 was 5.86. Still for that read-out and setting: the same measure for `CCOS(=O)(=O)/C=C/c1ccc(O[C@@H]2CN(Cc3ccc(Oc4ccc(C(C)C)cc4)cc3)C[C@H]2Oc2ccc(/C=C/S(=O)(=O)OCC)cc2)cc1`: 5.16.
